Results from patent publication US9464064B2, “HCV helicase inhibitors and methods of use thereof” (University of Kansas, priority 2011, dated 2016).
Non-standard residues stand in square brackets, D forms with d. Residues, ends and D or L forms follow the SMILES beside them. ξ: configuration not given here. *: point of attachment. ξNMe2Val = CC(C)C(C(=O)*)N(C)C; NMeV = CN[CH](C(=O)O)C(C)C; NHBn = c1ccc(CN*)cc1

Target: T1, HCV NS3 helicase NS3h_1b(con1) (Hepatitis C virus genotype 1b, UniProt Q9WMX2)
T1 construct: truncated C-terminally His-tagged NS3 proteins lacking the N-terminal protease, called NS3h; His-tag (C); made in house
Test: MBHA screen of NCI mechanistic set library at 20 μM (percent inhibition, compound interference)
Format: biochemical
Details: compounds at 20 μM; for Inh. (%) (Inhibition): calculated from Equation 1
Procedure, shortened: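 Molecular beacon-based DNA unwinding assay; compounds screened at 20 μM in triplicate, with DMSO-only negative and 500 nM dT20 positive controls. Fluorescence (ex 643/em 670 nm) was read before and 30 min after adding ATP to 1 mM. Percent inhibition came from the change relative to DMSO controls; interference from pre-ATP fluorescence versus DMSO controls.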

[1] = MBHA with DNA substrate, assay interference calculated with Equation 2
[2] = assay interference calculated with Equation 2 (fluorescence vs DMSO-only controls before ATP)

T1 sequence (Q9WMX2 1192-1657): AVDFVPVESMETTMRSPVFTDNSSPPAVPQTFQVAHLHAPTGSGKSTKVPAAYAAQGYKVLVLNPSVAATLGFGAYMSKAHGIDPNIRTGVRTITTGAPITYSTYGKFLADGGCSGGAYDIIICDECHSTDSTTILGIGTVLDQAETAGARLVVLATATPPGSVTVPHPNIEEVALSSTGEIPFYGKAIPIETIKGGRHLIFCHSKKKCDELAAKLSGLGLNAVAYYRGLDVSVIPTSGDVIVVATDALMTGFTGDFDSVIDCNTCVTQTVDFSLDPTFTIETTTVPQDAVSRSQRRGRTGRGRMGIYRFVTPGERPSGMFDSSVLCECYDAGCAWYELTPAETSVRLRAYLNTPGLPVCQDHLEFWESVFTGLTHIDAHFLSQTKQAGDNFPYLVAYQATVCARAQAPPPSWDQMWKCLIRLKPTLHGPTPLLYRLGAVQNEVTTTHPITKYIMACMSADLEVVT

| Compound | Int.* (Ratio) (Interference) [1] | Inh. (%) (Inhibition) (MBHA with DNA substrate) | Inh. (%) (Inhibition) (MBHA with a DNA substrate) | Int.* (Ratio) (Interference) [2] |
| --- | --- | --- | --- | --- |
| CC(=O)C(N1CCCCC1)C(O)(C(F)(F)F)C(F)(F)F (centres unmarked) [Compound 664327] | 0.82 | 25.5 | – | – |
| O/N=C(\CC(O)(C(F)(F)F)C(F)(F)F)c1cccc(Cl)c1 [Compound 664329] | 1.01 | −14.5 | – | – |
| CC1=CC(=O)c2cccc(NC3=NCCO3)c21 [Compound 664331] | 1.03 | −1.8 | – | – |
| O=C1Cc2c([nH]c3ccc(Br)cc23)-c2ccccc2N1 [Compound 664704] | 0.98 | −10.6 | – | – |
| CCCCCCC1CC(=O)C1(Cl)Cl (centres unmarked) [Compound 666526] | 0.97 | −1.3 | – | – |
| CCOC(=O)Cc1cc(=O)oc2cc(O)ccc12 [Compound 667235] | 1.06 | 12.3 | – | – |
| CN(C)c1cccc(/C=C(\C#N)c2ccccc2)c1 [Compound 667251] | – | – | −7.0 | 1.09 |
| S=C1Nc2cnc3ccccc3c2SC1c1ccccc1 (centres unmarked) [Compound 667467] | 0.89 | 33.3 | – | – |
| C=C1CC(Cn2cc(Br)c(=O)[nH]c2=O)(c2ccc(-c3ccccc3)cc2)OC1=O (centres unmarked) [Compound 668260] | 0.94 | 0.4 | – | – |
| C=C1CC(COc2cc(=O)oc3ccccc23)(c2ccccc2)OC1=O (centres unmarked) [Compound 668270] | 0.83 | 28.1 | – | – |
| CC(C)C(NC(=O)C(C(C)C)N(C)C)C(=O)N(C)C(C(=O)N1CCCC1C(=O)N1CCCC1C(=O)NCc1ccccc1)C(C)C.Cl (centres unmarked) [Compound 669356] (ξNMe2Val-V[NMeV]PP-NHBn; configuration not given here) | 1.08 | −9.2 | – | – |
| O=C(ON=C1c2ccccc2C(Br)C(Br)c2ccccc21)c1ccccc1 (centres unmarked) [Compound 670140] | 0.95 | 15.2 | – | – |
| CN(C)CCOC1(Cc2ccc(Cl)cc2Cl)CCC(C(C)(C)C)CC1.Cl (centres unmarked) [Compound 670224] | 0.88 | 17.9 | – | – |
| Cc1ccc(CC2(OCCN(C)C)CCC(C(C)(C)C)CC2)cc1.O=C(O)/C=C/C(=O)O (centres unmarked) [Compound 670225] | 1.04 | −16.0 | – | – |
| CN(C)CCOC1(Cc2ccc(F)cc2)CCC(C(C)(C)C)CC1.O=C(O)/C=C/C(=O)O (centres unmarked) [Compound 670226] | 1.11 | −2.6 | – | – |
| Cc1ccc(CC2(OCCN(C)C)CCC(C(C)(C)C)CC2)cc1.O=C(O)/C=C/C(=O)O (centres unmarked) [Compound 670229] | – | – | −28.8 | 1.17 |
| CC(=O)c1sc2c(c1OC(=O)c1ccc(Cl)cc1Cl)c(=O)n(-c1ccccc1)c(=S)n2-c1ccccc1 [Compound 671136] | 0.90 | 1.2 | – | – |
| COc1ccc(N=C2C(=Nc3ccc(OC)cc3)N(c3ccc(N(C)C)cc3)C(=S)N2c2ccc(OC)cc2)cc1 [Compound 671394] | – | – | −5.4 | 0.86 |
| N[C@@H](Cc1ccc2oc3cc(=O)c4ccccc4c-3nc2c1)C(=O)O [Compound 672425] | 0.89 | −11.4 | – | – |
| COC(=O)C1CCC(=O)N1C(c1ccc(OC)cc1)c1cc(OC)c(OC)c(OC)c1 (centres unmarked) [Compound 673622] | 1.08 | −9.6 | – | – |
| NC(=O)N/N=C1\CC2C3CC4C2C4C13 (centres unmarked) [Compound 673912] | – | – | −4.0 | 1.04 |
| Cc1cc(-c2nc3ccccc3s2)ccc1N [Compound 674495] | 0.98 | −7.5 | – | – |
